One assay relates to IL-6. Nature of the assay: IL-6 content in blood serum of LPS-induced mice (ELISA). The class given is in vivo, Balb/C mice. The protocol: (§1) 1. A reagent was taken out of a kit and balanced for 30 min at room temperature;
(§2) 2. standard wells and sample wells were set, and 50 ul standards at different concentrations were respectively added to each standard well.
(§3) 3. 50 ul sample to be tested (blood sample from each group of mice model constructed in example 9) was first added to the wells of the sample to be tested;
(§4) 4. 100 ul HRP-labeled detection antibody was respectively added to each standard well and well to be tested;
(§5) 5. reaction wells were sealed by a microplate membrane for incubation for 60 min at 37° C.;
(§6) 6. liquid was discarded, water was dried by an absorbent paper, each well was filled with scrubbing solution, standing for 1 min;
(§7) 7. a culture solution was discarded, water was dried by an absorbent paper, and steps 2-6 were operated repeatedly for 5 times;
(§8) 8. 50 ul substrate A/B was respectively added to each well for incubation for 15 min at 37° C.;
(§9) 9. 50 ul stop buffer was added to each well to detect an OD value at 450 nm by an microplate reader within 15 min.
Background: ELISA stands for enzyme-linked immunosorbent assay.

The next assay deals with TNF-a. In words: TNF-a content in blood serum of LPS-induced mice (ELISA). The class given is in vivo, Balb/C mice. The protocol: as §1, §2, §3, §4, §5, §6, §7, §8, §9
The target of the next assay is T1, Bradykinin B1 receptor (Homo sapiens, UniProt P46663).
T1 construct: host or cells: HEK293/Gα15/B1
T1 sequence (P46663 1-353): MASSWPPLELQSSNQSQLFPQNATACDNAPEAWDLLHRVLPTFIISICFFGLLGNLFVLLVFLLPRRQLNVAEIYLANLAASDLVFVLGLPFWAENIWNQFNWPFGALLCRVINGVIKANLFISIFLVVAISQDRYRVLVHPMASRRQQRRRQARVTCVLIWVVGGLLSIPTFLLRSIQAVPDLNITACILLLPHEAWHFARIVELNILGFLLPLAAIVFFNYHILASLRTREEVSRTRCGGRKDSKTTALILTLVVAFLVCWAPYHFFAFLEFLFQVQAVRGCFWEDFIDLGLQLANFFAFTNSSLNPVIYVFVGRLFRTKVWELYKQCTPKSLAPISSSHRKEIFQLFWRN
Type of assay: cell-based.

For assay [1], the system named is LPS-induced acute lung injury. Nature of the assay: LPS-induced acute lung injury in mice, HE pathological examination of lung tissues. The class given is in vivo, Balb/C mice. The following applies: LPS 5 mg/kgBW i.p. As to the method:
1. Grade-SPF male Balb/C mice, body weight: 20±2 g, and n=48
3. Grouping and treatment: mice were randomly divided into 8 groups (A-H), 6 pcs./group;
3-1: 3 different treatments were given for 3 consecutive days respectively before modeling:
A. normal control group: normal saline was injected via the tail vein for once/day;
B. LPS model group: normal saline was injected via the tail vein for once/day;
C. model sp2 administration group: sp2 (16 mg/kgBW) was injected via the tail vein for once/day;
D. model high-dose brap administration group: brap (16 mg/kgBW) was injected via the tail vein for once/day;
E. model medium-dose brap administration group: brap (8 mg/kgBW) was injected via the tail vein for once/day;
F. model low-dose brap administration group: brap (4 mg/kgBW) was injected via the tail vein for once/day;
G. model brap intranasal administration group: brap (3 mM) was administered nasal administration on both sides, 15 μl/each side; once a day;
H. model dexamethasone administration group (a positive control group): dexamethasone, DEX, 5 mg/kg was injected intraperitoneally for once a day.
Animals from groups A-H were continuously administered the above treatments for 30 min respectively, then group A was intraperitoneally injected isopyknic normal saline, and other groups were intraperitoneally injected LPS 5 mg/kgBW.
1. Tissue section and extending
2. Tissues were dewaxed and hydrated.
3. Tissues were dyed with a hematoxylin stain for 5-20 min (adjusted according to different tissues and experimental requirements), and washed by tap water.
4. Then, tissues were differentiated by a differentiation solution for 30 s.
5. Tissues were soaked by tap water for 15 min or warm water (about 50° C.) for 5 min.
6. Tissues were put in an Eosin stain for 2 min (adjusted according to different tissues and experimental requirements), and washed by tap water.
7. Then, the tissues were soaked by tap water for 5 min.
8. Dehydration by gradient alcohol: Tissues were dehydrated by 95%, 100% I, and 100% II for 1 min each;
9. Transparency by xylene: tissues were subjected to xylene I and II for 10 min.
10. Neutral balsam mounting.
11. Then, it was put and dried in an oven at 60° C., and observed under microscope.

Another assay concerns IL-6 mRNA. Nature of the assay: IL6 mRNA expression in lung tissues of LPS-induced mice by qPCR. The class given is in vivo, Balb/C mice. The protocol:
1.1 Lung tissue sample: a fresh lung tissue sample from each group of mice constructed in example 9 was taken and quick-frozen by liquid nitrogen as quickly as possible, and kept at […].
2. Extraction of total RNA (a total RNA extraction kit via a paramagnetic particle method was used)
2.1 The tissue sample was cut into small pieces, and ground (50 mg) to powder via liquid nitrogen, and transferred to a 1.5 ml tube free of RNA enzyme (cell sample and other liquid samples required no grinding, and were directly put to the next step).
Using the operational method of Applied Biosystems 7300/7500/7500 Fast Real-Time PCR System and StepOnePlusTMReal-Time PCR System
1. Preparation of a PCR reaction liquid
2. Real Time PCR reaction was performed.
At the end of the reaction, an amplification curve and dissociation curve of Real Time
PCR were confirmed, and 2^−ΔΔct and the like were calculated.
For orientation: In qPCR the cycle at which signal appears reflects the starting amount.

In another assay the test system is ROS. Nature of the assay: ROS fluorescence intensity in lung tissue of LPS-induced mice by flow cytometry. Type of assay: in vivo, Balb/C mice. As to the method: 1. About 100 mg fresh left lung tissue from each group of mice constructed in example 9 was taken and washed for three times with PBS to remove blood;
2. the tissue was put in a nylon net, ground by a grinding rod, and washed by PBS;
3. a cell suspension was collected, and filtered by a 200-mesh sieve to remove tissue blocks;
4. the cell suspension was collected and centrifuged for 5 min at 1000 rpm/min;
5. cellular supernatant was removed and PBS was added for resuspending;
6. 10 μmol/L DCFH-DA was prepared with a serum-free culture solution;
7. cells were centrifuged to remove PBS, and the above probe diluent was added to make the cell concentration being 10^6/ml;
8. the cells were incubated for 30 min at 37° C., and shaken off for once every 3 min;
9. the cells were centrifuged for 5 min at 1000 rpm/min, and cell precipitates were resuspended on a serum-free culture medium;
10. step 9 was repeated for twice;
11. 500 μL PBS was added to resuspend cells, and flow cytometry was used to detect mean fluorescence intensity.
(Flow cytometry measures light scatter and fluorescence of single cells or particles in a stream.)

[2] abbreviates: low, medium and high-dose intravenous injection groups, p<0.01.
Where [3] appears, read: nasal dripping group, at 12 h, P<0.05.

Data on 1 sequence can be found in patent US11401303B2, “Synthetic peptide BRAP and application in preparation of anti-inflammatory drug for COVID-19 thereof” (TAIAN CITY QIHANG BIOTECHNOLOGY CO., priority 2020, dated 2022).

“Also recorded” adds a separate entry of the source. Ends that are not written are not given here.

Consider RVLNGPEAPA [brap], for which the “IL-6 level in serum compared with the model group” value with IL-6 (setting [2]) is reported as “dose-response relationship”. Moreover, in the assay on IL-6 (setting [3]), the “IL-6 level in LPS-induced blood” value is on record as “can decrease”. Moreover, the “TNF-a level in serum compared with the model group” value in the assay on TNF-a (setting [2]) is “dose-response relationship”. For the same sequence, the “TNF-a level in LPS-induced blood” value in the assay on TNF-a (setting [3]) is “can decrease”. For the same sequence, the “Effect of compound acting together with EC10 and EC20” value on Bradykinin B1 receptor was “no obvious effect”. In addition, the “Inhibitory activity on B1 receptor activation by EC80 irritant” value on Bradykinin B1 receptor is “obviously inhibited”. For the same sequence, the “Lung tissue pathology (HE)” value is “No abnormality; also recorded: no thickened pulmonary septum and no obvious inflammatory cell infiltration” in assay [1] (16 mg/kgBW via tail vein once/day); “no obvious abnormality” in assay [1] (intranasal 3 mM, 15 μl/each side once a day); “inflammatory cell infiltration begins to appear” in assay [1] (medium and low dose, 8 and 4 mg/kgBW via tail vein once/day). In addition, the “IL-6 mRNA overexpression in lung tissues” value in the assay on IL-6 mRNA (intranasal administration) and in the assay with IL-6 mRNA (intravenous injection) was “obviously decrease the overexpression” in each case. Besides, the “ROS content in lung tissues” value in the assay with ROS (induced by LPS for 6 h) was “obviously reducing the increase in ROS content”; in the assay with ROS (intranasal administration, LPS-induced mice), “reducing the overly increased ROS content”; with ROS (intravenous injection, LPS-induced mice) it was “obviously decreases the overly increased ROS content”. Moreover, the “ROS content in lung tissue” value in the assay on ROS (induced by LPS for 12 h) was “obviously reducing the increase in ROS content”.
